According to patent US8846710B2, “Method of preferentially inducing the biosynthesis of interferon” (3M Innovative Properties Company, priority 2005, dated 2014):

Experiments:
[1] = system: interferon (α) (IFN-α); assay: Cytokine induction in human cells: IFN-α secreted by PBMC into culture media (ELISA); type: cell-based; settings: for Maximal Response IFN / Minimum Effective Concentration IFN / minimal effective concentration: human PBMC; for Maximal Response IFN / Minimum Effective Concentration IFN: median where tested in more than one experiment; for minimal effective concentration: lowest tested concentration inducing IFN-α over usually 20 pg/mL, median where more than one experiment, read-out: Minimum Effective Concentration (μM) IFN; for Maximal Response (pg/mL) IFN: maximal response in dose response curve, median
Summary of the method: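 IFN-α secreted by density-gradient-isolated PBMC (final 2×10^6 cells/mL) was quantified by ELISA after 18–24 h compound exposure at 37 °C, typically 30-0.014 μM in 3-fold steps with ≤1% DMSO. Readings corrected for background and reference-compound variability; lowest concentration above usually 20 pg/mL reported, plus maximal response (pg/mL).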

[2] = system: tumor necrosis factor (α) (TNF-α); assay: Cytokine induction in human cells: TNF-α secreted by PBMC into culture media (ORIGEN M-Series immunoassay); type: cell-based; set-up: key to Maximal Response (pg/mL) TNF / Maximal Response TNF: If any negative values result from background subtraction, the reading is reported as “*”, and is noted as not reliably detectable; settings: for Minimum Effective Concentration TNF / Maximal Response TNF / minimal effective concentration: human PBMC; for Minimum Effective Concentration TNF: median where tested in more than one experiment; for Maximal Response TNF / Maximal Response (pg/mL) TNF: median; for Maximal Response (pg/mL) TNF: maximal response in dose response curve; for minimal effective concentration: lowest tested concentration inducing TNF-α over usually 40 pg/mL, median where more than one experiment, read-out: Minimum Effective Concentration (μM) TNF
Summary of the method: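 Secreted TNF-α (pg/mL) was quantified by ORIGEN M-Series immunoassay after 18 to 24 hours culture at 37° C of human PBMC (2×10^6 cells/mL final) with test compound (usually 30-0.014 μM, 3-fold series, DMSO ≤1%). Values were corrected for DMSO or experimental background and a reference-compound ratio, giving a minimum effective concentration.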

[3] = Table 11, * = TNF below experimental background of 40 pg/mL
[4] = Table 10, * = below experimental background level
[5] = Table 7, background-subtracted, reference-adjusted
[6] = Table 12, * = below the experimental background of 40 pg/mL

Row | SMILES | Maximal Response IFN ([1]; Table 11) [pg/mL] | Minimum Effective Concentration IFN ([1]; Table 11) [µM] | Minimum Effective Concentration TNF ([2]; Table 11) [µM] | Maximal Response TNF [2, 3] | minimal effective concentration ([1]; Table 10) [µM] | further results
1 | COCCc1nc2c(N)nc3ccccc3c2n1CCCCN [Analog 114] | 127231 | 0.04 | 0.37 | 724 pg/mL |  | 
2 | CS(=O)(=O)NCCCCCCCCn1c(CCO)nc2c(N)nc3ccccc3c21 [Example 119] | 8361 | 0.04 | 3.33 | 693 pg/mL |  | 
3 | CC(C)(O)Cn1c(CCO)nc2c(N)nc3cc(-c4ccccc4)ccc3c21 [Example 157] |  |  |  |  | 0.37 | Maximal Response (pg/mL) TNF [2, 4]: 67 pg/mL
4 | Nc1nc2ccccc2c2c1nc(CCO)n2CCCCNC(=O)c1nccc2ccccc12 [Example 111] | 7753 | 0.12 | 1.11 | 983 pg/mL |  | 
5 | CCOCc1nc2c(N)nc3cc(-c4cccc(O)c4)ccc3c2n1CC(C)(C)O [Analog 43] |  |  |  |  | 0.04 | Maximal Response (pg/mL) IFN [1, 4]: 740 pg/mL; minimal effective concentration ([2]; Table 10): 0.04 µM; Maximal Response (pg/mL) TNF [2, 4]: 3955 pg/mL
6 | CCc1nc2c(N)nc3ccccc3c2n1CCCCNC(=O)N1CCOCC1 [Analog 54] | 4975 | 0.37 | 3.33 | 2570 pg/mL |  | 
7 | CC(C)Cn1c(CCO)nc2c(N)nc3cc(-c4cncc(CO)c4)ccc3c21 [Example 159] |  |  |  |  | 0.12 | minimal effective concentration ([2]; Table 10): 10 µM
8 | Nc1nc2ccccc2c2c1nc(CCO)n2CCCCNC(=O)c1cnc2ccccc2n1 [Example 117] | 5520 | 0.37 | 3.33 | 1938 pg/mL |  | 
9 | CCCCNC(=O)NCCCn1c(CCO)nc2c(N)nc3ccccc3c21 [Example 126] | 8361 | 1.11 | >30 | * |  | 
10 | COCCc1nc2c(N)nc3ccccc3c2n1CCCNC(=O)N1CCOCC1 [Analog 89] | 5915 | 0.014 | 0.014 | 6169 pg/mL |  | 
11 | Nc1nc2ccccc2c2c1nc(CCO)n2CCCCCCCCNC(=O)c1ccccc1 [Example 121] | 2441 | 0.37 | 3.33 | 180 pg/mL |  | 
12 | Cc1nc2c(N)nc3ccccc3c2n1CCCNC(=O)N1CCOCC1 [Analog 87] | 4843 | 0.37 | 30 | 463 pg/mL |  | 
13 | COCCc1nc2c(N)nc3ccccc3c2n1CC(C)(C)CNC(=O)Nc1ccccc1 [Analog 92] | 570 | 0.014 | 0.04 | 6449 pg/mL |  | 
14 | CCOCc1nc2c(N)nc3cc(-c4cncc(CO)c4)ccc3c2n1CC1CCN(C(=O)C(C)C)CC1 [Analog 44] |  |  |  |  | 0.04 | Maximal Response (pg/mL) IFN [1, 4]: 1382 pg/mL; minimal effective concentration ([2]; Table 10): 1.11 µM; Maximal Response (pg/mL) TNF [2, 4]: 3128 pg/mL
15 | CCOCc1nc2c(N)nc3cc(-c4cccc(C)c4)ccc3c2n1CC(C)(C)O [Analog 41] |  |  |  |  | 0.014 | Maximal Response (pg/mL) IFN [1, 4]: 541 pg/mL; minimal effective concentration ([2]; Table 10): 0.12 µM; Maximal Response (pg/mL) TNF [2, 4]: 10184 pg/mL
16 | CS(=O)(=O)NCCCCn1c(CCO)nc2c(N)nc3ccccc3c21 [Example 3, N-{4-[4-Amino-2-(2-hydroxyethyl)-1H-imidazo[4,5-c]quinolin 1-yl]butyl}methanesulfonamide] | 2340 |  |  | * |  | 
17 | Cc1cccc(-c2ccc3c(c2)nc(N)c2nc(CO)n(CC(C)(C)O)c23)c1 [Example 164] |  |  |  |  | 30 | Maximal Response (pg/mL) IFN [1, 4]: 87 pg/mL; minimal effective concentration ([2]; Table 10): >30 µM; Maximal Response (pg/mL) TNF [2, 4]: *
18 | COCCc1nc2c(N)nc3cc(-c4ccccc4)ccc3c2n1CC(C)(C)O [Analog 23] |  |  |  |  | 0.014 | Maximal Response (pg/mL) IFN [1, 4]: 260 pg/mL; minimal effective concentration ([2]; Table 10): 0.014 µM; Maximal Response (pg/mL) TNF [2, 4]: 2296 pg/mL
19 | CCOCc1nc2c(N)nc3cc(-c4cncc(CO)c4)ccc3c2n1CC(C)(C)O [Analog 14] |  |  |  |  | 0.014 | Maximal Response (pg/mL) IFN [1, 4]: 6308 pg/mL; minimal effective concentration ([2]; Table 10): 0.12 µM; Maximal Response (pg/mL) TNF [2, 4]: 18284 pg/mL
20 | Nc1nc2ccccc2c2c1nc(CCO)n2CCCNC(=O)c1ccccc1 [Example 132] | 8361 | 0.37 | >30 | * |  | 
21 | CC(C)(CNC(=O)Nc1ccccc1)Cn1c(CCO)nc2c(N)nc3ccccc3c21 [Example 130] | 8361 | 0.014 | 3.33 | 2001 pg/mL |  | 
22 | Cc1nc2c(N)nc3ccccc3c2n1CCCN [Analog 84] | 421 | 3.33 | >30 | * |  | 
23 | Cc1nc2c(N)nc3ccccc3c2n1CCCNC(=O)c1ccccc1 [Analog 101] | 571 | 1.11 | 3.33 | 156 pg/mL |  | 
24 | COCCc1nc2c(N)nc3ccccc3c2n1CC(C)(C)NS(C)(=O)=O [Analog 5, N-{2-[4-Amino-2-(2-methoxyethyl)-1H-imidazo[4,5-c]quinolin-1-yl]-1,1-dimethylethyl}methanesulfonamide] | 1308 |  |  | 13908 pg/mL |  | Maximal Response (pg/mL) IFN [1, 5]: 825 pg/mL; Maximal Response (pg/mL) TNF [2, 5]: 12518 pg/mL
25 | CC(C)(CN)Cn1c(CCO)nc2c(N)nc3ccccc3c21 [Example 129] | 2702 | 0.37 | 30 | 85 pg/mL |  | 
26 | CC(C)(Cn1c(CCO)nc2c(N)nc3ccccc3c21)NS(C)(=O)=O [Example 6, N-{2-[4-Amino-2-(2-hydroxyethyl)-1H-imidazo[4,5-c]quinolin-1-yl]-1,1-dimethylethyl}methanesulfonamide] | 6527 |  |  | * |  | Maximal Response (pg/mL) IFN [1, 5]: 7521 pg/mL
27 | CCOCc1nc2c(N)nc3cccnc3c2n1CC(C)C [Analog 132, 2-ethoxymethyl-1-(2-methylpropyl)-1H-imidazo[4,5-c][1,5]naphthyridin-4-amine] |  |  |  |  |  | Maximal Response IFN ([1]; Table 12): 1524 pg/mL; Maximal Response TNF [2, 6]: 3160 pg/mL
28 | CC(C)(F)Cn1c(CO)nc2c(N)nc3cccnc3c21 [Example 551, [4-Amino-1-(2-fluoro-2-methylpropyl)-1H-imidazo[4,5-c][1,5]naphthyridin-2-yl]methanol] |  |  |  |  |  | Maximal Response IFN ([1]; Table 12): 1833 pg/mL; Maximal Response TNF [2, 6]: 1922 pg/mL
29 | CCOCc1nc2c(N)nc3cc(-c4cccnc4)ccc3c2n1CC(C)C [Analog 26] |  |  |  |  | 0.014 | Maximal Response (pg/mL) IFN [1, 4]: 591 pg/mL; minimal effective concentration ([2]; Table 10): 0.12 µM; Maximal Response (pg/mL) TNF [2, 4]: 647 pg/mL
